From patent US20120225834A1, “OCULAR IONTOPHORESIS OF CHARGED MICELLES CONTAINING BIOACTIVE AGENTS” (EYEGATE PHARMACEUTICALS, INC., priority 2009, published 2012)
Where two headings read alike, the source gives them in different places.

Test: Solubilization of sparingly soluble compounds using quaternary ammonium cationic surfactants (dissolved concentration by HPLC)
Type: physicochemical
Method: Aqueous solubility of dexamethsone, a corticosteroid, and natamycin, an antifungal agent, was increased by using quaternary ammonium cationic surfactants cetyltrimethylammonium bromide (CTAB), ditetradecyldimethylammonium bromide (TMAB), and dioctadecyldimethylammonium chloride (OMAC). Stock solutions of surfactants were prepared by adding water to the surfactant and mixing under low shear at room temperature. The stock solution of CTAB and TMAB was prepared at 10 mg/mL and 20 mg/mL in WFI (water for injection) whereas the stock solution of OMAC was only prepared at 10 mg/mL due to gel formation at 20 mg/mL. Surfactant solutions with different concentrations were then prepared by diluting the corresponding stock solution with WFI.
Dexamethasone (or natamycin) was added to each surfactant solution in such quantity to precipitate. The mixture was sonicated for one hour in a sonication water tank and then stirred overnight.
Dissolved dexamethasone (or natamycin) concentration was analyzed on HPLC following two different procedures: (1) An aliquot of the mixture was centrifuged at 10 k RPM (9.3 k×g relative gravitational force) for 30 min. Clear supernatant was then analyzed on HPLC; (2) An aliquot of the mixture was filtered through a syringe filter (Acrodisc®, Supor membrane, 0.2 micrometers), and then analyzed on HPLC. […]

Row | Aqueous solubility | Structure (SMILES) | Aqueous solubility (in aqueous solutions of quaternary ammonium cationic surfactants CTAB, TMAB and OMAC in WFI, sonicated one hour, stirred overnight, HPLC after centrifugation or 0.2 micrometer filtration)
1 |  | C[C@@H]1C[C@H]2[C@@H]3CCC4=CC(=O)C=C[C@]4(C)[C@@]3(F)[C@@H](O)C[C@]2(C)[C@@]1(O)C(=O)CO [dexamethsone, dexamethasone] | increased
2 | increased | C[C@@H]1C/C=C/C=C/C=C/C=C/[C@H](O[C@@H]2O[C@H](C)[C@@H](O)[C@H](N)[C@@H]2O)C[C@@H]2O[C@](O)(C[C@@H](O)C[C@H]3O[C@@H]3/C=C/C(=O)O1)C[C@H](O)[C@H]2C(=O)O [natamycin] | 
